Test results reported in paper PMC11371739, “Ginkgolic Acid as a carbapenem synergist against KPC-2 positive Klebsiella pneumoniae” (Frontiers in Microbiology, 2024).

Target: T1, KPC-2 (Klebsiella pneumoniae carbapenemase-2) (Klebsiella pneumoniae, UniProt Q9F663)
T1 construct: purified KPC-2 expressed in E. coli BL21(DE3) (pET28a-KPC-2)
Test: nitrocefin hydrolysis inhibition assay with purified KPC-2; supported by CD, FTIR and site-directed mutagenesis
Assay type: biochemical

T1 sequence (Q9F663 25-293 limits assumed): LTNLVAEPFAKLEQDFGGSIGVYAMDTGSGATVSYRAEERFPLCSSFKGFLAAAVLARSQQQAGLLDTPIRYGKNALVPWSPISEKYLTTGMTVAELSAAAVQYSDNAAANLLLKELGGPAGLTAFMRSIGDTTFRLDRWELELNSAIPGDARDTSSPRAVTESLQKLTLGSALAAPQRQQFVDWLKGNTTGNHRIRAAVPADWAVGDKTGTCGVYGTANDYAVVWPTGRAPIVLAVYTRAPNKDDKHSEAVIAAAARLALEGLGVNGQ

## CCCCCCCCCCCCCc1cccc(O)c1C(=O)O [GA, Ginkgolic Acid (C13:0)]
  IC50: 14.8 µM
